From US9162979B2, “1,5-Diary1-2-alkylpyrrole-3-substituted nitro esters, selective COX-2 inhibitors and nitric oxide donors” (ROTTAPHARM BIOTECH S.R.L., priority 2010, dated 2015)

How the values were obtained:
rat liver homogenate [1] = assay: Evaluation of release of nitrites in hepatic homogenate; settings: nitrite after 4 hours, 1 mM, 37° C., as percentage of SNP
Text: (§3) By evaluating the time-dependent increase in nitrite concentrations in the liver homogenate, it was possible to extrapolate two descriptive parameters:
(§4) Time (in minutes) required for an amount of nitrite to be released by the test compound equal to half its maximum release.

rat liver homogenate [2] = settings: 1 mM
Text: as §3, §4

[3] = system: MIA-induced osteoarthritis; assay: Chronic pain from MIA-induced osteoarthritis; format: in vivo, rat; settings: 20 mg/kg per os twice daily for 14 days
Procedure: The compounds are administered per os at a dose of 20 mg/kg twice daily for 14 days. Monosodium iodoacetate (MIA), 2 mg in 25 μL is injected in the left knee of anaesthetized rats, the test is carried out according to the literature. Each experiment represents the mean value for 5 animals.

COX-2 = COX-2 (Mus musculus (Mouse), UniProt Q05769); assay: Evaluation of COX-2 activity: PGE2 production in LPS-stimulated J774 cells; format: cell-based, murine; settings: J774 cells stimulated 24 hours with LPS 10 μg/mL; PGE2 by radio-immunological assay; read-out: Cyclooxygenase inhibition COX-2 IC50
Chain of COX-2 (Q05769 18-604): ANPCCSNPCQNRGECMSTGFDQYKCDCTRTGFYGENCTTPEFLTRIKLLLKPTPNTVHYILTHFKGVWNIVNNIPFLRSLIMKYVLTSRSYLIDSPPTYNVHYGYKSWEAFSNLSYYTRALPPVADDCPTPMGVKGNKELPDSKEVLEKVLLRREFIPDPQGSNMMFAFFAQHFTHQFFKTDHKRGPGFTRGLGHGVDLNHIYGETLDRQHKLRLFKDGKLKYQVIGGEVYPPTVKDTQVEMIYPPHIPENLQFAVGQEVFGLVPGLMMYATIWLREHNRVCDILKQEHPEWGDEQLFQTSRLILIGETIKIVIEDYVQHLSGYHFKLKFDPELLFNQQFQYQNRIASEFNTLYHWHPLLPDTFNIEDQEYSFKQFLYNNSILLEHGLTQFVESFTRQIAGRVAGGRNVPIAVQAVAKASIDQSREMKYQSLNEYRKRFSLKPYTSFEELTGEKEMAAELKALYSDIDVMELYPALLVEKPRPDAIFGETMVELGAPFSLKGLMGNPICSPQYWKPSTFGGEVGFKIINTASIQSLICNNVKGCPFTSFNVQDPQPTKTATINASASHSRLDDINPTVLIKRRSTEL
Outline: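 Murine J774 macrophages switched to serum-free medium before stimulation; PGE2 in supernatants measured by radioimmunoassay, triplicate wells per condition. IC50 with 95% intervals from sigmoidal variable-slope dose-response fit.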

[4] = system: isolated rings of thoracic aorta; assay: Evaluation of release of NO: vasorelaxing activity on endothelium-denuded aortic rings contracted with KCl; design: species or system rat; key to NO release properties Emax (maximum vasorelaxing effect) / NO release properties pIC50 (vasorelaxing potency): S.E: Scarcely Effective: it is not possible to detect NO release comparable to the other compounds mentioned here; settings: relative to contractile tone induced by 20 mM KCl, 1 nM-10 μM
Outline: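 Endothelium-denuded male Wistar rat thoracic aorta rings (2 g preload, Tyrode, 37 °C, 95% O2/5% CO2) precontracted with 20 mM KCl, then given cumulative test compound (1 nM–10 μM). Relaxation as % of KCl tone; Emax and pIC50 reported as mean±SE of 5–10 experiments. Also repeated with 1 μM ODQ.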

[5] = system: carrageenan-induced inflammatory state in the rat; assay: Carrageenan test: nociceptive threshold (weight supported); format: in vivo; settings: for Weight supported (g) Before treatment: baseline before treatment
Procedure: (§1) Male Swiss albino mice (23-25 g) and Wistar rats (150-200 g) were used.
The nociceptive threshold in the rat was determined with an analgesiometer, as described by Leighton et al. (Br. J. Pharmacol., 1988, 93, 553-560), the pressure was measured before the treatment and after 30 and 60 min. To reproduce the inflammatory state in the rat, carrageenan was administered i.p. (0.1 ml, 1%) 4 h before the test.
(§2) The test was performed using 6 animals per group, all the compounds were administered per os, 30 min before the test. The carrageenan is administered 2 h before the test.

[6] = system: mouse abdominal contraction (writhing) induced by acetic acid; assay: Abdominal constriction test induced by acetic acid; format: in vivo
Procedure: as §1
The antinociceptive activity was determined by the mouse abdominal contraction test using acetic acid (0.6%), which induces writhing, according to Koster's method (Fed. Proc., 1959, 18, 412-418). The number of stretching movements was counted for 10 minutes, starting 5 minutes after injection of acetic acid. The results relating to analgesic activity in the abdominal constriction test with representative compounds of the invention are shown in Table 10.
The test was carried out using 10 animals in the treated group and 20 in the control group (CMC); all the compounds were administered per os with the exception of the compound of Example 8, which was administered i.p.

[7] = system: rat paw oedema induced by carrageenan; assay: Volume of oedema test (carrageenan); format: in vivo
Procedure: The rat paw volumes were measured using a pletismometer. Four hours after injecting carrageenan 1.0% (0.1 ml injection), the volume of the right hind-paw was measured and compared with that of controls treated with a saline/carrageenan solution. The rats were administered the test compounds 3.5 hours after the carrageenan. The results are given as paw volume expressed in ml. The results relating to the analgesic and anti-oedemic activity in the carrageenan test for some representative compounds of the invention are shown in Table 11.
as §2

[8] = system: carrageenan-induced inflammatory state in the rat; assay: Carrageenan test: nociceptive threshold (weight supported); format: in vivo; settings: 20 mg/kg per os

SMILES | Maximum release (%) (rat liver homogenate [1]) | T ½ (rat liver homogenate [2]) [min] | Weight supported (g) After treatment 30 min [3] [g] | Weight supported (g) After treatment 4 h [3] [g] | Weight supported (g) After treatment 24 h [3] [g] | Weight supported (g) Before treatment ([3]; baseline before treatment) [g] | IC50 (COX-2) [µM] | Emax ([4]; Rattus norvegicus, read-out: NO release properties Emax (maximum vasorelaxing effect)) [%] | Weight supported (g) After treatment 30 min ([5]; 10 mg/kg per os) [g] | Weight supported (g) After treatment 60 min ([5]; 10 mg/kg per os) [g] | Weight supported (g) Before treatment ([5]; 10 mg/kg per os) [g] | N writhes ([6]; 10 mg/kg per os) | N writhes ([6]; 20 mg/kg per os) | Oedema Volume ([7]; 10 mg/kg per os) [mL] | NO release properties Emax (maximum vasorelaxing effect) [4] | Weight supported (g) After treatment 30 min ([5]; 20 mg/kg per os) [g] | Weight supported (g) After treatment 60 min ([5]; 20 mg/kg per os) [g] | Weight supported (g) Before treatment ([5]; 20 mg/kg per os) [g] | Oedema Volume ([7]; 20 mg/kg per os) [mL] | Weight supported after 120 min [8]
Cc1c(CCOCCO[N+](=O)[O-])cc(-c2ccc(S(C)(=O)=O)cc2)n1-c1ccc(F)cc1 [Example 37, 2-[2-[2-(1-(4-Fluorophenyl)-2-methyl-5-(4-methylsulphonylphenyl)-1H-pyrrol-3-yl]ethoxy]ethyl Nitrate] | 25 ± 3 | 42.8 ± 6.9 | 45.1 ± 3.7 | 39.1 ± 3.5 | 33.8 ± 3.7 | 34.6 ± 3.1 | 0.014 | 49 ± 3 | 55.1 ± 4.7 | 52.6 ± 4.0 | 34.7 ± 2.7 | 19.1 ± 2.7 | 15.2 ± 3.3 | 1.87 ± 0.07 |  |  |  |  |  | 
Cc1c(CCOCCCO[N+](=O)[O-])cc(-c2ccc(S(C)(=O)=O)cc2)n1-c1ccc(F)cc1 [Example 41, 3-[2-[2-(1-(4-Fluorophenyl)-2-methyl-5-(4-methylsulphonylphenyl)-1H-pyrrol-3-yl)]ethoxy]propyl Nitrate] |  |  |  |  |  |  | 0.19 |  |  |  |  |  |  |  | S.E. | 49.2 ± 3.7 | 50.7 ± 3.8 | 30.9 ± 2.8 | 1.85 ± 0.08 | 45.2±4.1
